From patent US5525731A, “Camptothecin analogues and methods of preparation thereof” (priority 1994, dated 1996)
Entries after “also recorded” stand apart in the source; their conditions may differ. Where two headings read alike, the source gives them in different places.

Assays:
[1] = tested on: HL-60 cells (human promyelocytic leukemia); assay: Cytotoxicity, XTT assay, HL-60 cell growth, 72 hr exposure; assay type: cell-based; settings: for IC50: read-out: Inhibitory Concentrations IC50
Method: (§1) The synthesized compounds were evaluated for their cytotoxic effects on HL-60 (human promyelocytic leukemia) and 833K cells. The assay was conducted in 96-well microplates. The compounds were serially diluted in 4 to 6 steps with dimethylsulfoxide and added to cell incubation medium (RPMI 1640 containing 10% fetal. […]) at the final concentration of 1.0% dimethylsulfoxide in the medium. The cytotoxicity of the compounds were determined by the XTT-microculture tetrazolium assay: 2',3'-bis(2-methoxy-4-nitro-5-sulfophenyl)-3-[(phenylamino)carbonyl]-2H-tetrazolium hydroxide (XTT) was prepared at 1 mg/mL in prewarmed (37° C.) medium without serum. Phenazine methosulfate (PMS) and fresh XTT were mixed together to obtain 0.075 mM PMS-XTT solution (25 mL of the stock with 5 mg PMS added per 5 mL of 1 mg/mL XTT). Fifty microliters of this mixture were added to each well of the cell culture after 72 hours exposure to the testing compound. After incubation at 37° C. for 6 hours, the absorbance was determined at 450 nm and 630 nm with a microplate reader (EL 340, Bio-Tek Instruments, Inc., Winooski, Vt.). THe median-effect inhibitory concentration (IC50) was determined from a medium-effect plot using computer software for the purpose.
(§2) The results of the assay of cytotoxicity towards HL-60 and 833K cells of several analogues of camptothecin prepared in accord with the invention are illustrated in the accompanying Tables I and II, along with comparison data for native camptothecin. The data shown indicate that the camptothecin analogues prepared by the new methods provided by the invention have significant cytotoxic activity against cancer cells. […]

[2] = tested on: 833K cells; assay: Cytotoxicity, XTT assay, 833K cell growth, 72 hr exposure; assay type: cell-based; settings: Homo sapiens, 72 h
Method: as §1, §2

[3] = tested on: B-16 melanoma; assay type: in vivo, BD2 F1 mice
Method: Average body weight changes were recorded daily.
Tumor: B16 Melanoma Drug A = Camptothecin
Inoculation: 2 × 10^6 cells. S.C.
(§3) Schedule: QD × 5. I.P. started day 4

[4] = tested on: Sarcoma 180
Method: The control lane (Table A) indicates separate inoculation of nine mice with B-16 melanoma and sarcoma 180.
Anti-tumor activity of the newly synthesized compounds and the established drugs (as positive controls) against solid tumors (B-16 melanoma and sarcoma 180) was tested in BD2 F1 mice. Tumor (about 2.5×10^6 cells) was inoculated subcutaneously (s.c.). Treatment with the drug started on day 4 after inoculation. The drug was injected intraperitoneously (i.p) daily (QD) for five days. Control mice received the same volume (50 μl) of the solvent vehicle (Dinso) as the drug-treated animals. Tumor size was evaluated every few days using a caliper for both the control and the treated group. Average body weight changes were recorded daily. Any lethality due to high dose drug toxicity or due to tumor progression was also recorded.
as §3

[5] = tested on: topoisomerase I; settings: camptothecin, literature; cited from earlier work
[6] = tested on: topoisomerase I and DNA; settings: camptothecin, literature; cited from earlier work
[7] = camptothecin, background; cited from earlier work
[8] = Table I, HL-60 (head HL-6), 72 hr, XTT
[9] = B-16 melanoma, 4 mg/kg i.p. QD × 5, day 7
[10] = Sarcoma 180, 4 mg/kg i.p. QD × 5, day 7

Q: Which IC70 ([1]; Homo sapiens, HL-60, 72 h, read-out: Inhibitory Concentrations IC70, Table I, HL-60 (head HL-6), 72 hr, XTT) does the source give for `CC[C@@]1(O)C(=O)OCc2c1cc1n(c2=O)Cc2cc3ccccc3nc2-1` [Camptothecin] here?
A: 0.012 µM

Q: What about the IC70 ([1]; Homo sapiens, HL-60, 72 h, read-out: Inhibitory Concentrations IC70, Table II, HL-60, 72 hr, XTT) of the same compound?
A: 0.012 µM

Q: And the IC95 ([1]; Homo sapiens, HL-60, 72 h, read-out: Inhibitory Concentrations IC95, Table I, HL-60 (head HL-6), 72 hr, XTT)?
A: 0.025 µM

Q: What about the IC95 ([1]; Homo sapiens, HL-60, 72 h, read-out: Inhibitory Concentrations IC95, Table II, HL-60, 72 hr, XTT) of the same compound?
A: 0.025 µM

Q: And the “Inhibitory Concentrations IC70” value [1, 8]?
A: 0.006

Q: And the “Inhibitory Concentrations IC95” value [1, 8]?
A: 0.022

Q: What about the IC70 ([1]; Table II, HL-60, 72 hr, XTT, read-out: Inhibitory Concentrations IC70) of the same compound?
A: 0.006 µM

Q: What about the IC95 ([1]; Table II, HL-60, 72 hr, XTT, read-out: Inhibitory Concentrations IC95) of the same compound?
A: 0.022 µM

Q: And the IC50 [1, 8]?
A: 0.0035 µM

Q: What about the IC50 ([1]; Table I, HL-60 (head HL-6), 72 hr, XTT, listed as WS-1) of the same compound?
A: 0.0094 µM

Q: What about the IC50 ([1]; Table II, HL-60, 72 hr, XTT) of the same compound?
A: 0.0035 µM

Q: What about the IC50 ([1]; Table II, HL-60, 72 hr, XTT, listed as WS-1) of the same compound?
A: 0.0094 µM

Q: And the IC50 ([2]; read-out: Inhibitory Concentrations IC50)?
A: 0.0153 µM

Q: And the IC70 ([2]; read-out: Inhibitory Concentrations IC70)?
A: 0.043 µM

Q: What about the IC95 ([2]; read-out: Inhibitory Concentrations IC95) of the same compound?
A: 0.649 µM

Q: What about the “AVERAGE TUMOR VOLUME” value ([3]; B16 melanoma, 4 mg/kg, day 7) of the same compound?
A: 0.113 CM^3

Q: What about the “DEATHS (D/L)” value ([3]; B16 melanoma, 4 mg/kg, day 7) of the same compound?
A: 0/2

Q: What about the “PERCENT OF CONTROL (tumor volume)” value ([3]; B16 melanoma, 4 mg/kg, day 7) of the same compound?
A: 59.5%

Q: What about the “AVERAGE TUMOR VOLUME” value ([3]; B16 melanoma, 4 mg/kg, day 14) of the same compound?
A: 3.500 CM^3

Q: And the “AWC (average weight change)” value ([3]; B16 melanoma, 4 mg/kg, day 14)?
A: +2.4 GM

Q: And the “DEATHS (D/L)” value ([3]; B16 melanoma, 4 mg/kg, day 14)?
A: 0/2

Q: And the “PERCENT OF CONTROL (tumor volume)” value ([3]; B16 melanoma, 4 mg/kg, day 14)?
A: 109.8%

Q: And the average weight loss ([3]; B-16 melanoma, 4 mg/kg)?
A: 1.8 gm

Q: What about the tumor volume decrease ([3]; B-16 melanoma, 4 mg/kg) of the same compound?
A: 40%

Q: And the “AWC (average weight change)” value [3, 9]?
A: -1.8 gm

Q: What about the “Ave Tumor Volume (T/C)” value [3, 9] of the same compound?
A: 0.595

Q: And the “AWC (average weight change)” value [4, 10]?
A: -0.9 gm

Q: And the “Ave Tumor Volume (T/C)” value [4, 10]?
A: 0.634

Q: What about the “AVERAGE TUMOR VOLUME” value ([4]; Sarcoma 180, 4 mg/kg, day 7) of the same compound?
A: 0.104 CM^3

Q: What about the “DEATHS (D/L)” value ([4]; Sarcoma 180, 4 mg/kg, day 7) of the same compound?
A: 0/2

Q: What about the “PERCENT OF CONTROL (tumor volume)” value ([4]; Sarcoma 180, 4 mg/kg, day 7) of the same compound?
A: 63.4%

Q: What about the “AVERAGE TUMOR VOLUME” value ([4]; Sarcoma 180, 4 mg/kg, day 14) of the same compound?
A: 0.080 CM^3

Q: And the “AWC (average weight change)” value ([4]; Sarcoma 180, 4 mg/kg, day 14)?
A: +0.8 GM

Q: What about the “DEATHS (D/L)” value ([4]; Sarcoma 180, 4 mg/kg, day 14) of the same compound?
A: 0/2

Q: And the “PERCENT OF CONTROL (tumor volume)” value ([4]; Sarcoma 180, 4 mg/kg, day 14)?
A: 39.4%

Q: And the average weight loss ([4]; sarcoma 180, 4 mg/kg)?
A: 0.9 gm

Q: What about the tumor volume decrease ([4]; sarcoma 180, 4 mg/kg) of the same compound?
A: 36%

Q: And the “inhibition of topoisomerase I on DNA unwinding” value [5]?
A: inhibits the action of topoisomerase I on DNA unwinding; also recorded: reversible with heat, high salt concentrations and high dilution

Q: What about the “binding to the enzyme or DNA target in isolation” value [6] of the same compound?
A: binds neither to the enzyme nor to its DNA target in isolation

Q: And the toxicity [7]?
A: High toxicity
